US12302928B2, “Application of acylated derivative of amino acid in preparation of animal feed additive” (ANIPHA TECHNOLOGIES PTY LTD, priority 2018, dated 2025)
Where two headings read alike, the source gives them in different places.

Tests used:
[1] = tested on: yellow-feathered broilers; assay: Breeding test B3: effect on the production performance of broilers; type: in vivo; details: 300 ppm in basal daily ration, 20 days; for ADFI (average daily feed intake): 1-day-old broilers; for FCR (feed conversion ratio): ADFI/ADG
From the text: The test adopted a single-factor random design. 1,080 1-day-old yellow-feathered broilers with similar body weight and the average weight of 50 g were selected and randomly divided into 9 groups, with 6 replications per group and 20 yellow-feathered broilers (half of male and female) per replication. The poultry houses and utensils were sterilized before the test. During the test period, the yellow-feathered broilers were housed in the same poultry house under the same feeding and management conditions. The basal daily ration was mainly corn-soybean meal, and no other antioxidant components and growth promoters were added additionally during the entire feeding process. The test groups were the control group (group I) and the test groups II˜IX, respectively. The basal daily ration was only given for the control group, and 300 ppm of different acylated derivatives of the aminobutyric acid were added into the basal daily ration for the test groups II˜IX.
The test period was 20 days. The test broilers were free to drink water and eat feed, and were fed twice a day. With each repetition as a unit, the test broilers were weighed at the age of 21 days (stopping feed for 12 hours, without stopping water), the feed consumption of test broilers were recorded, and the average daily feed intake (ADFI, g/d*each broiler), the average daily gain (ADG, g/d*each broiler) and feed conversion ratio (FCR) were calculated for each of the test groups. The formula for calculation was as follows: Feed conversion ratio (FCR)=average daily feed intake/average daily gain.

Jingbai laying hens = assay: Breeding test B2: effect on the production performance of laying hens; type: in vivo; details: 150 ppm in basal daily ration, 158 days; for EPR (egg production rate): 147-day-old laying hens
From the text: The test adopted a single-factor random design. 1,080 147-day-old Jingbai laying hens with similar body weight were selected and randomly divided into 9 groups, with 6 replications per group and 20 Jingbai laying hens per replication. The poultry houses and utensils were sterilized before the test. During the test period, the Jingbai laying hens were cage cultured in the same poultry house under the same feeding and management conditions. The basal daily ration was mainly corn-soybean meal, and no other antioxidant ingredients and growth promoters were added additionally during the entire feeding process. The test groups were the control group (group I) and the test groups II˜IX, respectively. The basal daily ration was only given for the control group, and 150 ppm of different acylated derivatives of the aminobutyric acid were added into the basal daily ration for the test groups II˜IX. The pre-feeding period was 10 days, and the test period was 158 days. The test laying hens were free to drink water and eat feed, and were fed twice a day. The test takes each repetition as a unit, and records the total egg number, the egg production, and the feed intake every day, and calculates the egg production rate (EPR), the average daily feed intake (ADFI, g/d), the egg weight (EW, g) and the feed-to-egg ratio (FER) of the laying hens during the entire test. The formula for calculation was as follows: Egg production rate (%)=average daily total egg number/number of laying hens×100; Egg weight (g)=average daily total egg weight/average daily total egg number; Feed-to-egg ratio=average daily feed intake/egg weight.

[2] = tested on: convulsion caused by bicuculline or corazol; details: cited from earlier work
glutamate decarboxylase = details: cited from earlier work
[3] = tested on: Duroc×Landrace×Yorkshire cross-bred bacon-type pigs; assay: Breeding test B1: effect on the production performance of pigs; type: in vivo; details: 400 ppm in basal daily ration, 28 days; for ADFI (average daily feed intake) / ADG (average daily gain): 65-day-old pigs; for FCR (feed conversion ratio): ADFI/ADG
From the text: 270 65-day-old Duroc×Landrace×Yorkshire cross-bred bacon-type pigs with similar body weight were randomly divided into 9 groups, with 3 replications per group and 10 pigs (half of male and female) per replication. The pigpens and utensils were sterilized before the test. During the test period, the test pigs were free-stall housed in the same pigpen under the same feeding and management conditions. During the test period, the test pigs were free to drink water and eat feed, and test pigs were fed twice a day. The test groups were the control group (group I) and the test groups II˜IX, respectively. Wherein the basal daily ration was only given for the control group, and 400 ppm of different acylated derivative of the aminobutyric acid was added into the basal daily ration for the test groups II˜IX.
No other antioxidant ingredients and growth promoters were added for the test groups during the entire feeding process. The test period was 28 days, with each repetition as a unit, the test pigs were weighed at the age of 93 days without stopping water and feed for 12 hours; the average daily feed intake (ADFI, g/d*each pig), the average daily gain (ADG, g/d*each pig) and the feed conversion ratio (FCR) were calculated for each of the test groups. The formula for calculation was as follows: Average daily feed intake=(total amount of feed−remaining amount of feed)/(number of days of test×number of pigs per repetition); Average daily gain=(average body weight at the end of the test−average body weight at the beginning of the test)/number of days of test; Feed conversion ratio=average daily feed intake/average daily gain.

grass carps = assay: Breeding test B4: use in fish feed (growth of grass carps); type: in vivo; details: for change in vivo at 150 ppm, 150 µg/mL: po, 1344 h, read-out: Weight gain rate
Procedure: The test fishes used were grass carps, and the test was carried out in the aquaculture farm of the test field of Guangzhou Insighter. Healthy, lively, and uniform grass carp fingerlings were fed in large cages for 4 weeks before being used for formal breeding test. The experimental system was a small floating cage. Both the small cage and the temporary cage were placed in a 3500 m^2 pond of the test field, the depth of the pond was about 1.5 m, and the water of the pond was fully aerated in the bottom of the pond. During the test, 360 grass carps that were hungry for 1 day were randomly divided into 9 groups, with 4 replications per group and 10 grass carps per replication. All of the grass carps were weighed, and then were randomly placed in 36 cages and fed with different test feeds. The test feeds were self-prepared, and 150 ppm of different acylated derivatives of the aminobutyric acid were added into the basal feed for different test groups, respectively. The test groups were the control group (group I) and the test groups IIIX, respectively. The basal daily ration was only given for the control group, and 150 ppm of different acylated derivatives of the aminobutyric acid were added into the basal daily ration for the test groups IIIX.
The test adopted time-limited artificial feeding, and the feeding amount was adjusted once a week. The feeding rate of the control group and the feeding rate of the test groups (according to the initial body weight) were exactly the same, and the grass carps were fed twice a day (7:30 and 15:00). The test period was 8 weeks.

[4] = tested on: nephrotoxicity caused by cephalosporin; details: rabbit; 150 mg/kg; cephalosporin at a dose of 150 mg/kg; cited from earlier work
[5] = after subcutaneous injection; cited from earlier work

SMILES | ADG (average daily gain) [1] | ADFI (average daily feed intake) [1] | FCR (feed conversion ratio) [1] | ADFI (average daily feed intake) (Jingbai laying hens) | EW (egg weight) (Jingbai laying hens) | EPR (egg production rate) (Jingbai laying hens) | antagonism of convulsion [2] | inhibition of glutamate decarboxylase (glutamate decarboxylase) | ADFI (average daily feed intake) [3] | ADG (average daily gain) [3] | FCR (feed conversion ratio) [3] | (FCR) (grass carps; 150 ppm in basal feed, 8 weeks) | Average final weight (grass carps; 150 ppm in basal feed, 8 weeks) | change in vivo at 150 ppm, 150 µg/mL (grass carps) | protection of the kidney from cephalosporin nephrotoxicity [4] | time to maximum blood concentration [5] | change in vivo at 150 ppm, 150 µg/mL (grass carps; 150 ppm in basal feed, 8 weeks)
O=C(O)CCCNC(=O)c1ccccc1 [N-benzoyl-γ-aminobutyric acid] | 14.13 g/d * each broiler | 27.56 g/d * each broiler | 1.95 | 158 g/day | 54.92 g | 86.7% | can antagonize the convulsion | can inhibit a glutamate decarboxylase | 1837 g/d * each pig | 699 g/d * each pig | 2.628 | 1.79 | 721 g | 81.6% | can significantly protect the kidney | ≤ 5 min | 
O=C(O)CCCNC(=O)c1ccc(O)cc1 [N-p-hydroxybenzoyl-γ-aminobutyric acid] | 12.32 g/d * each broiler | 24.52 g/d * each broiler | 1.99 | 161 g/day | 55.27 g | 81.8% |  |  | 1602 g/d * each pig | 611 g/d * each pig | 2.620 | 1.82 | 710 g |  |  |  | 81.5%
NCC(=O)NCCCC(=O)O [N-glycyl-γ-aminobutyric acid] | 13.02 g/d * each broiler | 26.17 g/d * each broiler | 2.01 | 161 g/day | 55.61 g | 82.9% |  |  | 1728 g/d * each pig | 651 g/d * each pig | 2.655 | 1.75 | 755 g | 78.2% |  |  | 
O=C(O)CCCNC(=O)c1ccc(Cl)cc1 [N-p-chlorobenzoyl-γ-aminobutyric acid] | 12.32 g/d * each broiler | 24.88 g/d * each broiler | 2.02 | 160 g/day | 55.07 g | 81.4% |  |  | 1675 g/d * each pig | 642 g/d * each pig | 2.610 | 1.77 | 730 g |  |  |  | 81.5%
Nc1ccc(C(=O)NCCCC(=O)O)cc1 [N-p-aminobenzoyl-γ-aminobutyric acid] | 12.42 g/d * each broiler | 25.84 g/d * each broiler | 2.08 | 161 g/day | 55.31 g | 82.6% |  |  | 1643 g/d * each pig | 632 g/d * each pig | 2.601 | 1.84 | 713 g |  |  |  | 79.2%
NCCCC(=O)NCCCC(=O)O [N-(γ-aminobutyryl)-γ-aminobutyric acid] | 14.62 g/d * each broiler | 28.94 g/d * each broiler | 1.98 | 160 g/day | 55.24 g | 84.4% |  |  | 1831 g/d * each pig | 693 g/d * each pig | 2.642 | 1.80 | 707 g |  |  |  | 83.7%
CC(=O)NCCCC(=O)O [N-acetyl-γ-aminobutyric acid] | 15.15 g/d * each broiler | 31.06 g/d * each broiler | 2.05 | 160 g/day | 55.24 g | 82.2% |  |  | 1827 g/d * each pig | 723 g/d * each pig | 2.665 | 1.81 | 733 g |  |  |  | 77.6%
Cc1ccc(C(=O)NCCCC(=O)O)cc1 [N-p-methylbenzoyl-γ-aminobutyric acid] | 13.84 g/d * each broiler | 27.13 g/d * each broiler | 1.96 | 159 g/day | 54.81 g | 84.4% |  |  | 1769 g/d * each pig | 672 g/d * each pig | 2.631 | 1.74 | 739 g |  |  |  | 82.1%
